This is an account of results in article PMC3578047 (European journal of pharmacology, 2012).

Counter-ions that a name gives are not always drawn.

The subject of series [1] is naive rats. The experiment in a line: von Frey assay in the absence of a pain state. The class given is in vivo, rat. Conditions: for mechanical withdrawal thresholds in naive rats: 3 mg/kg.
Series [2] concerns plasma epoxyeicosatrienoic acids, dihydroxyeicosatrienoic acids, PGE2 and PGD2. As to the kind of experiment: plasma oxylipin analysis in the inflammatory pain model. The class given is in vivo, rat. Conditions: 2 h post lipopolysaccharide.
The test system of series [3] is lipopolysaccharide induced inflammatory pain (mechanical allodynia). The class given is in vivo, rat. To be noted: for effect on lipopolysaccharide induced allodynia over the dose range: s.c. 60 min prior to lipopolysaccharide, at 2 h.
The conditions of series [4]: cynomolgus monkey; ref Ulu et al., 2011; cited from earlier work.
For series [5] the following is noted: ref Liu et al., 2009; cited from earlier work.
The subject of series [6] is streptozocin induced type I diabetic neuropathic pain (mechanical allodynia). The class given is in vivo, rat. Conditions: for anti-allodynic effect over the time course versus vehicle: 15 min to 6 h; for effect on neuropathic allodynia versus vehicle: 10 mg/kg s.c., over 6 h time course.
The conditions of series [7]: ref Liu 2009; cited from earlier work.
The subject of series [8] is naive rats. As to the kind of experiment: rotorod motor skill test. Conditions: 3 mg/kg.
The subject of a further series is human sEH. To be noted: read-out: IC50 Human, fluorescent assay, ref Hwang 2007; cited from earlier work.
Series [9] in a line: plasma pharmacokinetics in rat. To be noted: low dose, mean plasma AUC (S2). The class given is in vivo.
A further series is described as follows: experimental logP. To be noted: determined experimentally as described by Tsai et al. 2010.
The mark [10] stands for this setting: 3 mg/kg s.c. 60 min prior to lipopolysaccharide.

For `CC(=O)N1CCC(NC(=O)NC23CC4CC(CC(C4)C2)C3)CC1` [APAU, 1-(1-acetypiperidin-4-yl)-3-adamantanylurea], the “mechanical withdrawal thresholds in naive rats” value in the series with naive rats [1] is “showed no effect in the assay”. Moreover, in the series with naive rats [1] (100 mg/kg), the “nociceptive thresholds in absence of pain state versus vehicle” value was “did not significantly alter the nociceptive thresholds”. In addition, the “plasma PGE2 and PGD2 versus lipopolysaccharide + vehicle” value in series [2] (3 mg/kg) is “reduced both prostaglandins significantly”. Moreover, the “plasma PGE2 and PGD2 versus lipopolysaccharide + vehicle” value in series [2] (100 mg/kg) is “did not significantly decrease PGE2 and PGD2 levels”. Besides, in series [2] (3 and 100 mg/kg), the “sum dihydroxyeicosatrienoic acids in plasma versus vehicle controls” value is “significantly lowered dihydroxyeicosatrienoic acids” and the “sum epoxyeicosatrienoic acids in plasma versus vehicle controls” value is “did not significantly alter sum epoxyeicosatrienoic acids levels”. In series [3] (3 mg/kg oral gavage in PEG400, 1 h prior to lipopolysaccharide), the “effect of oral gavage dose compared to s.c. dose” value is listed as “equaled the maximal effect of the s.c. dose”. Further, in series [3] (setting [10]), the “earliest time point at which pain was blocked” value amounted to 15 min and the “effect over the time course versus vehicle control” value was “significant versus vehicle control over the time course”. For the same compound, in series [3], the “effect on lipopolysaccharide induced allodynia over the dose range” value was “All doses of APAU except 0.1 mg/kg significantly blocked the lipopolysaccharide induced allodynia”. Besides, the plasma protein binding in series [4] is 35.5%. Besides, the plasma half-life result in series [5] is reported as “relatively short plasma half-life”. Also, in series [6] (3 mg/kg s.c., diabetic rats), the duration of anti-nociception entry is given as “up to 5 h”, the “time of first anti-allodynic effect” value was 15 min and the “anti-allodynic effect over the time course versus vehicle” value is “blocked allodynia by the first measurement at 15 minutes”. For the same compound, the “effect on neuropathic allodynia versus vehicle” value in series [6] (diabetic rats) is “significantly decreased allodynia”. In addition, in series [6] (s.c., dose range 0.1-100 mg/kg, at 2 h), the “most effective dose against allodynia” value stood at 3 mg/kg. In addition, in [7], the “Water Solubility” value is recorded as 310 ±60 mg/L^b.
With `Cc1ccc(-c2cc(C(F)(F)F)nn2-c2ccc(S(N)(=O)=O)cc2)cc1` [celecoxib, reference compound], in series [3] (10 mg/kg, 1 h prior to intraplantar lipopolysaccharide, over 6 h time course), the “effect on lipopolysaccharide induced allodynia” value is listed as “marginal effect at the 3 hour time point”. Besides, the “effect on neuropathic allodynia versus vehicle” value in series [6] (diabetic rats) is given as “no significant effect on the neuropathic allodynia”.
Turning to `CN1CC[C@]23c4c5ccc(O)c4O[C@H]2[C@@H](O)C=C[C@H]3[C@H]1C5` [morphine, Morphine sulfate, reference compound], in the series on naive rats [8], the “rotorod performance versus vehicle controls” value is reported as “no significant effect on rotorod performance”. Also, in the series with naive rats [1], the “mechanical withdrawal thresholds in naive rats” value is given as “significant increase in mechanical withdrawal thresholds”.
A word on the IC50: it is the concentration needed to halve the response being measured. For `O=C(NC12CC3CC(CC(C3)C1)C2)N[C@H]1CC[C@H](Oc2ccc(C(=O)O)cc2)CC1` [t-AUCB, trans-4-[4-(3-adamantan-1-yl-ureido)-cyclohexyloxy]-benzoic acid], in the series on human sEH, the IC50 was […]. The “effect over the time course versus vehicle control” value in series [3] (setting [10]) is “lacked a significance versus vehicle control over the time course”. In series [3], the “effect on lipopolysaccharide induced allodynia over the dose range” value is “significantly blocked pain related behavior only at the two highest doses 30 and 100 mg/kg”. The “anti-allodynic effect over the time course versus vehicle” value in [6] (3 mg/kg s.c., diabetic rats) is “significant versus vehicle control over the time course but overall the effect was brief”. The “only dose with significant anti-allodynic effect” value in series [6] (s.c., dose range 1-100 mg/kg, at 2 h) stood at 100 mg/kg.
With `O=C(Nc1cccc(OC(F)(F)F)c1)N[C@H]1CC[C@H](Oc2ccc(C(=O)O)cc2)CC1` [t-TUCB, trans-4-[4-(3-trifluoromethoxyphenyl-l-ureido)-cyclohexyloxy]-benzoic acid], the “overall pharmacokinetics in rats” value in [9] is “best overall pharmacokinetics at low dose”. Moreover, the IC50 in the series with human sEH is 0.9 nM. For the same compound, the plasma protein binding in [4] is given as 99%. The “anti-allodynic effect over the time course versus vehicle” value in series [6] (3 mg/kg s.c., diabetic rats) is “significantly effective versus vehicle control over the time course but was delayed and less active when compared to APAU”. Moreover, in series [6] (10 mg/kg, diabetic rats, early time points (Fig. S1, Table S3)), the mechanical withdrawal thresholds entry was “increased mechanical withdrawal thresholds to pre-diabetic pain free scores at early time points”. In addition, the “dose of maximal response, the only significant dose” value in [6] (s.c., dose range 0.1-100 mg/kg, at 3 h) came out at 10 mg/kg. The eLogP in the series “experimental logP” amounted to 1.6.
